Measurements: patent US8580827B2 (priority 2009, dated 2013)
≈ marks a conversion by molar mass, not a printed value. Entries after “also recorded” stand apart in the source; their conditions may differ. Like-named read-outs stand apart in the source and are kept apart here.

What was measured:
[1] = tested on: live vaccine strain (LVS, type B); assay: microbe, parasite or virus in culture; assay type: cell-based, F. tularensis
F. novicida strain U112 = assay: microbe, parasite or virus in culture; assay type: cell-based, F. tularensis subspecies novicida
[2] = tested on: RAW264.7 murine macrophage cells
[3] = tested on: Salmonella enterica serovar Typhimurium (ATCC 14028); assay type: cell-based
[4] = tested on: Escherichia coli (ATCC 25922); assay type: cell-based
[5] = tested on: F. tularensis strain Schu S4 (type A); assay: microbe, parasite or virus in culture; assay type: cell-based
[6] = tested on: intracellular F. tularensis (type A, Schu S4) in TPA-treated THP-1 cells; assay type: cell-based
[7] = tested on: intracellular F. novicida in TPA-differentiated human THP-1 macrophages; assay type: cell-based
[8] = tested on: intracellular F. novicida in RAW264.7 murine macrophages; assay type: cell-based
[9] = Francisella tularensis, U112, 24 h

Question: How did the MIC ([1]; Francisella tularensis, 48 h) turn out when `NS(=O)(=O)c1ccc(-n2nc(C(F)(F)F)cc2-c2ccc(-c3ccc(Cl)cc3)cc2)cc1` [Compound 11, 4-[5-(4′-Chloro-biphenyl-4-yl)-3-trifluoromethyl-pyrazol-1-yl]-benzenesulfonamide] was run?
Answer: Its MIC is no more than 4 µg/mL.

Question: And the MIC (F. novicida strain U112; [9])?
Answer: Its MIC is no more than 4 µg/mL.

Question: With `NS(=O)(=O)c1ccc(-n2nc(C(F)(F)F)cc2-c2ccc(-c3cc(Cl)c(Cl)cc3Cl)cc2)cc1` [Compound 12, 4-[5-(2′,4′,5′-Trichloro-biphenyl-4-yl)-3-trifluoromethyl-pyrazol-1-yl]-benzenesulfonamide] as the molecule, how does the MIC (F. novicida strain U112; [9]) read?
Answer: Its MIC is no more than 4 µg/mL.

Question: And the cytotoxicity for macrophages [2]?
Answer: The cytotoxicity for macrophages was “showed cytotoxicity for macrophages”.

Question: `CS(=O)(=O)c1ccc(C2=C(c3ccccc3)C(=O)OC2)cc1` [rofecoxib] was tested. Which effect on bacteria [3] did it give?
Answer: The effect on bacteria was “no appreciable effect”.

Question: And the effect on bacteria [1]?
Answer: Its effect on bacteria is “no appreciable effect”.

Question: What about the effect on bacteria [4] of the same molecule?
Answer: Its effect on bacteria is “no appreciable effect”.

Question: And the effect on bacteria (F. novicida strain U112)?
Answer: Its effect on bacteria is “no appreciable effect”.

Question: And the effect on bacteria [5]?
Answer: The effect on bacteria was “no appreciable effect”.

Question: For `Nc1ccc(-n2nc(C(F)(F)F)cc2-c2ccc(-c3ccccc3)cc2)cc1` [Compound 16, 4-(5-Biphenyl-4-yl-3-trifluoromethyl-pyrazol-1-yl)-phenylamine], which MIC ([1]; Francisella tularensis, 48 h) is on record?
Answer: Its MIC is no more than 4 µg/mL.

Question: And the MIC (F. novicida strain U112; [9])?
Answer: Its MIC is no more than 4 µg/mL.

Question: For `Nc1ccc(-n2nc(C(F)(F)F)cc2-c2ccc(-c3cc(Cl)c(Cl)cc3Cl)cc2)cc1` [Compound 17, 4-[5-(2′,4′,5′-Trichloro-biphenyl-4-yl)-3-trifluoromethyl-pyrazol-1-yl]-phenylamine], which MIC [1] is on record?
Answer: Its MIC is “potent inhibitor”.

Question: And the MIC (F. novicida strain U112)?
Answer: The MIC was “no measurable inhibitory effect”.

Question: Which MIC ([1]; Francisella tularensis, 48 h) does the source give for `NC(=O)c1ccc(-n2nc(C(F)(F)F)cc2-c2ccc(-c3ccc(Cl)cc3)cc2)cc1` [Compound 2, 4-[5-(4′-Chloro-biphenyl-4-yl)-3-trifluoromethyl-pyrazol-1-yl]-benzamide] here?
Answer: The MIC was no more than 4 µg/mL.

Question: And the MIC (F. novicida strain U112; [9])?
Answer: Its MIC is no more than 4 µg/mL.

Question: Which “inhibition of intracellular Schu S4 survival” value [6] does the source give for `Nc1ccc(-n2nc(C(F)(F)F)cc2-c2ccc(-c3ccc(Br)cc3)cc2)cc1` [Compound 20, 4-[5-(4′-Bromo-biphenyl-4-yl)-3-trifluoromethyl-pyrazol-1-yl]-phenylamine] here?
Answer: Its value is “significant inhibitory effect”.

Question: What about the “activity against S. enterica serovar Typhimurium” value [3] of the same molecule?
Answer: The value was “inactive”.

Question: What about the MIC ([1]; Francisella tularensis, 48 h) of the same molecule?
Answer: The MIC was no more than 4 µg/mL.

Question: What about the “activity against E. coli” value [4] of the same molecule?
Answer: Its value is “inactive”.

Question: And the MIC (F. novicida strain U112; [9])?
Answer: Its MIC is no more than 4 µg/mL.

Question: What about the “inhibition of intracellular F. novicida survival” value [7] of the same molecule?
Answer: Its value is “effectively inhibits; also recorded: could inhibit the survival of intracellular Francisella”.

Question: What about the “inhibition of intracellular F. novicida survival” value [8] of the same molecule?
Answer: The value was “effectively inhibits; also recorded: could inhibit the survival of intracellular Francisella”.

Question: How did the “activity against S. enterica serovar Typhimurium” value [3] turn out when `Cc1ccc(-c2cc(C(F)(F)F)nn2-c2ccc(S(N)(=O)=O)cc2)cc1` [celecoxib, 4-[5-(4-methylphenyl)-3-(trifluoromethyl)pyrazol-1-yl]benzenesulfonamide, reference compound] was run?
Answer: The value was “inactive”.

Question: And the “decrease in CFU” value [1]?
Answer: Its value is “≧log decrease in CFU”.

Question: And the MIC ([1]; Francisella tularensis, 48 h)?
Answer: Its MIC is 16 µg/mL (≈ 42 µM).

Question: And the “activity against E. coli” value [4]?
Answer: The value was “inactive”.

Question: And the “decrease in CFU” value (F. novicida strain U112)?
Answer: The value was “≧log decrease in CFU”.

Question: What about the MIC ([5]; Francisella tularensis, 24 h) of the same molecule?
Answer: Its MIC is 16 µg/mL (≈ 42 µM).
